24 molecules from patent US20260191998A1, “INDOLE PHTHALOCYANINE COMPOUND, PREPARATION METHOD THEREFOR, AND USE THEREOF IN TUMOR DIAGNOSIS IMAGING” (JIANGSU YAHONG MEDITECH CO., LTD., priority 2022, published 2026) can be followed below.

Counter-ions that a name gives are not always drawn.

A short description of the data set: UV-VIS absorption spectra (optical property test). Format: physicochemical. The note with it: 10 μM, DMSO solution; for Absorbance × 10^4: at maximum absorption peak. On the procedure: The UV-VIS absorption spectra of the compounds (10 μM, DMSO solution) were detected using Shimadzu UV2600 spectrophotometer, and the maximum absorption peak and absorbance of each compound were obtained.

`CC[N+]1=C(/C=C/C2=C(Oc3ccccc3)C(=C/C=C3/N(CCCCCC(=O)Oc4ccccc4)c4ccccc4C3(C)C)/CCC2)C(C)(C)c2ccccc21` [Example 12, 2-((E)-2-((E)-3-(2-((E)-3,3-dimethyl-1-(6-oxo-6-phenoxyhexyl)indolin-2-ylidene)ethenyl)-2-phenoxycyclohex-1-en-1-yl)ethenyl)-1-ethyl-3,3-dimethyl-3H-indol-1-ium Chloride]: the Absorption peak came to 781.5 nm and the “Absorbance × 10^4” value was 2.07.

Consider `CC[N+]1=C(/C=C/C2=C(Cl)C(=C/C=C3/N(CCOCCCC(=O)Oc4ccccc4)c4ccccc4C3(C)C)/CCC2)C(C)(C)c2ccccc21` [Example 36, 2-((E)-2-((E)-2-chloro-3-(2-((E)-3,3-dimethyl-1-(2-(4-oxo-4-phenoxybutoxy)ethyl)indolin-2-ylidene)ethenyl)cyclohex-1-en-1-yl)ethenyl)-1-ethyl-3,3-dimethyl-3H-indol-1-ium 2,2,2-trifluoroacetate], for which the Absorption peak amounted to 795.5 nm and the “Absorbance × 10^4” value is 3.368. In the same order, the values of `CC[N+]1=C(/C=C/C2=C(OC)C(=C/C=C3/N(CCCCCC(=O)Oc4ccccc4)c4ccccc4C3(C)C)/CCC2)C(C)(C)c2ccccc21` [Example 104] are 781.5 nm and 2.054. Consider `C[N+]1=C(/C=C/C2=C(Cl)C(=C/C=C3/N(CCOCCOCCOCc4ccccc4)c4ccccc4C3(C)C)/CCC2)C(C)(C)c2ccccc21` [Example 56, 2-((E)-2-((E)-3-(2-((E)-1-(2-(2-(2-(benzyloxy)ethoxy)ethoxy)ethyl)-3,3-dimethylindolin-2-ylidene)ethenyl)-2-chlorocyclohex-1-en-1-yl)ethenyl)-1,3,3-trimethyl-3H-indol-1-ium 2,2,2-trifluoroacetate], for which the “Absorbance × 10^4” value amounted to 1.85.

For `CC[N+]1=C(/C=C/C2=C(Oc3ccc(NC(=O)/C=C/CN(C)C)cc3)C(=C/C=C3/N(CCCCCC(=O)Oc4c(C)cccc4C)c4ccccc4C3(C)C)/CCC2)C(C)(C)c2ccccc21.[Cl-]` [Example 115], the “Absorbance × 10^4” value is 2.24. On to “2-((E)-2-((E)-2-chloro-3-(2-((E)-3,3-dimethyl-1-(6-oxo-6-(phenylamino)hexyl)indolin-2-ylidene)ethenyl)cyclohex-1-en-1-yl)ethenyl)-3,3-dimethyl-1-(6-oxo-6-(phenylamino) hexyl)-3H-indol-1-ium 2,2,2-trifluoroacetate [Example 27B]”, for which the Absorption peak is 797 nm and the “Absorbance × 10^4” value is 2.117. Consider “5-carboxy-2-((E)-2-((E)-2-chloro-3-(2-((E)-3,3-dimethyl-1-(6-oxo-6-phenoxyhexyl)indolin-2-ylidene)ethenyl)cyclohex-1-en-1-yl)ethenyl)-1,3,3-trimethyl-3H-indol-1-ium 2,2,2-trifluoroacetate [Example 120]”, for which the “Absorbance × 10^4” value was 1.73.

`CC[N+]1=C(/C=C/C2=C(Cl)C(=C/C=C3/N(CCCCCC(=O)O)c4ccc5ccccc5c4C3(C)C)/CC2)C(C)(C)c2c1ccc1ccccc21` [Example 1B, 2-((E)-2-((E)-3-((E)-2-(3-(5-carboxypentyl)-1,1-dimethyl-1,3-dihydro-2H-benzo[e]indol-2-ylidene)ethenyl)-2-chlorocyclopent-1-en-1-yl)ethenyl)-3-ethyl-1,1-dimethyl-1H-benzo[e]indol-3-ium Chloride]: the Absorption peak was found to be 859.5 nm and the “Absorbance × 10^4” value was 2.03. `CC[N+]1=C(/C=C/C2=C(Sc3ccccc3)C(=C/C=C3/N(CCCCCC(=O)Oc4ccccc4)c4ccccc4C3(C)C)/CC2)C(C)(C)c2ccccc21` [Example 101]: the Absorption peak was determined as 836.5 nm and the “Absorbance × 10^4” value is 1.971. As for “5-carboxy-2-((E)-2-((E)-2-chloro-3-(2-((E)-3,3-dimethyl-1-(2-(3-oxo-3-phenoxypropoxy)ethyl)indolin-2-ylidene)ethenyl)cyclohex-1-en-1-yl)ethenyl)-1-ethyl-3,3-dimethyl-3H-indol-1-ium 2,2,2-trifluoroacetate [Example 123]”, the “Absorbance × 10^4” value was determined as 1.3.

Take `COc1ccc2c(c1)C(C)(C)C(/C=C/C1=C(Cl)C(=C/C=C3/N(CCCCCC(=O)Oc4ccccc4)c4ccc(OC)cc4C3(C)C)/CCC1)=[N+]2C` [Example 47, 2-((E)-2-((E)-2-chloro-3-(2-((E)-5-methoxy-3,3-dimethyl-1-(6-oxo-6-phenoxyhexyl)indolin-2-ylidene)ethenyl)cyclohex-1-en-1-yl)ethenyl)-5-methoxy-1,3,3-trimethyl-3H-indol-1-ium]: the “Absorbance × 10^4” value is reported as 2. Take `CC1(C)C(/C=C/C2=C(Cl)C(=C/C=C3/N(CCCCCC(=O)O)c4ccccc4C3(C)C)/CC2)=[N+](CCCCCC(=O)O)c2ccccc21` [Example 84, 1-(5-carboxypentyl)-2-((E)-2-((E)-3-(2-((E)-1-(5-carboxypentyl)-3,3-dimethylindolin-2-ylidene)ethenyl)-2-chlorocyclopent-1-en-1-yl)ethenyl)-3,3-dimethyl-3H-indol-1-ium Chloride]: the “Absorbance × 10^4” value is recorded as 2.41. The same measure, in the same setting: the result for `CN(C)C1CC(/C=C/C2=[N+](C)c3ccccc3C2(C)C)=C(Cl)C(=C/C=C2/N(CCCCCC(=O)Oc3ccccc3)c3ccccc3C2(C)C)/C1` (stereo not drawn) [Example 50, 2-((E)-2-((E)-2-chloro-3-(2-((E)-3,3-dimethyl-1-(6-oxo-6-phenoxyhexyl)indolin-2-ylidene)ethenyl)-5-(dimethylamino)cyclohex-1-en-1-yl)ethenyl)-1,3,3-trimethyl-3H-indol-1-ium Formate] reads 1.97. For `CCN1/C(=C/C=C2\C[N+](C)(C)CC(/C=C/C3=[N+](CC)c4ccccc4C3(C)C)=C2Sc2ccccc2)C(C)(C)c2ccccc21.Cl` [Example 107], the Absorption peak is recorded as 778.5 nm and the “Absorbance × 10^4” value came to 2.028.

Regarding `C[N+]1=C(/C=C/C2=C(Cl)C(=C/C=C3/N(CCCCCC(=O)Nc4ccccc4)c4ccccc4C3(C)C)/CC2)C(C)(C)c2ccccc21` [Example 83, 2-((E)-2-((E)-2-chloro-3-(2-((E)-3,3-dimethyl-1-(6-oxo-6-(anilino)hexyl)indol-2-methylene)ethylidene)cyclopent-1-en-1yl)ethenyl)-1,3,3-trimethyl-3H-indol-1-ium Chloride], the Absorption peak came out at 820 nm and the “Absorbance × 10^4” value is 3.079.

Consider `CC1(C)C(/C=C/C2=C(Cl)C(=C/C=C3/N(CCC(=O)O)c4ccccc4C3(C)C)/C[N+](C)(C)C2)=[N+](CCC(=O)O)c2ccccc21` [Example 17, 1-(2-carboxyethyl)-2-((E)-2-((E)-5-(2-((E)-1-(2-carboxyethyl)-3,3-dimethylindolin-2-ylidene)ethenyl)-4-chloro-1,1-dimethyl-1,2,5,6-tetrahydropyridin-1-ium-3-yl)ethenyl)-3,3-dimethyl-3H-indol-1-ium Ditrifluoroacetate], for which the Absorption peak turned out to be 766 nm and the “Absorbance × 10^4” value is reported as 0.88.

Regarding `CC[N+]1=C(/C=C/C2=C(Oc3ccc(S(=O)(=O)O)cc3)C(=C/C=C3/N(CCCCCC(=O)Oc4ccccc4)c4ccccc4C3(C)C)/C[N+](C)(C)C2)C(C)(C)c2ccccc21` [Example 112], the Absorption peak came out at 756 nm and the “Absorbance × 10^4” value is 0.911. With `Cc1cccc(C)c1OC(=O)CCCCC[N+]1=C(/C=C/C2=C(Cl)C(=C/C=C3/N(CCCCCC(=O)O)c4ccccc4C3(C)C)/CC2)C(C)(C)c2ccccc21` [Example 88, 2-((E)-2-((E)-3-(2-((E)-1-(5-carboxypentyl)-3,3-dimethylindolin-2-ylidene)ethenyl)-2-chlorocyclopent-1-en-1-yl)ethenyl)-1-(6-(2,6-dimethylphenoxy)-6-oxohexyl)-3,3-dimethyl-3H-indol-1-ium Acetate], the “Absorbance × 10^4” value stood at 1.75. Regarding `CC1(C)C(/C=C/C2=C(Cl)C(=C/C=C3/N(CCCCCC(=O)Nc4ccccc4)c4ccccc4C3(C)C)/CCC2)=[N+](CCCCS(=O)(=O)O)c2ccccc21` [Example 26, 2-((E)-2-((E)-2-chloro-3-(2-((E)-3,3-dimethyl-1l-(6-oxo-6-(phenylamino)hexyl)indolin-2-ylidene)ethenyl)cyclohex-1-en-1-yl)ethenyl)-3,3-dimethyl-1-(4-sulfonylbutyl)-3H-indo-1-ium Formate], the Absorption peak is given as 797.5 nm and the “Absorbance × 10^4” value worked out at 2.44. In the same order, the values of `CC1(C)C(/C=C/C2=C(Cl)C(=C/C=C3/N(CCCCCC(=O)Nc4ccccc4)c4ccccc4C3(C)C)/CCC2)=[N+](CCCCCC(=O)O)c2ccccc21` [Example 27A, 1-(5-carboxypentyl)-2-((E)-2-((E)-2-chloro-3-(2-((E)-3,3-dimethyl-1-(6-oxo-6-(phenylamino)hexyl)indolin-2-ylidene)ethenyl)cyclohex-1-en-1-yl)ethenyl)-3,3-dimethyl-3H-indol-1-ium 2,2,2-trifluoroacetate] are 796.5 nm and 2.29.

Turning to `CC1(C)C(/C=C/C2=C(Cl)C(=C/C=C3/N(CCCCCC(=O)Oc4ccccc4)c4ccccc4C3(C)C)/CCC2)=[N+](CCCCCC(=O)O)c2ccccc21` [Example 11], the Absorption peak is reported as 796.5 nm and the “Absorbance × 10^4” value worked out at 2.27. For the molecule `CC[N+]1=C(/C=C/C2=C(Br)C(=C/C=C3/N(CCCCCC(=O)O)c4ccccc4C3(C)C)/CCC2)C(C)(C)c2ccccc21.[Cl-]` [Example 96], the “Absorbance × 10^4” value came to 2.45. Take `CC[N+]1=C(/C=C/C2=C(Cl)C(=C/C=C3/N(CCOCCCCCC(=O)Oc4ccccc4)c4ccccc4C3(C)C)/CCC2)C(C)(C)c2ccccc21` [Example 35, 2-((E)-2-((E)-2-chloro-3-(2-((E)-3,3-dimethyl-1-(2-((6-oxo-6-phenoxyhexyl)oxy)ethyl)indolin-2-ylidene)ethenyl)cyclohex-1-en-1-yl)ethenyl)-1-ethyl-3,3-dimethyl-3H-indol-1-ium 2,2,2-trifluoroacetate]: the Absorption peak worked out at 794.5 nm and the “Absorbance × 10^4” value is 2.21. On the same counts, the results for `CC1(C)C(/C=C/C2=C(Cl)C(=C/C=C3/N(CCCCCC(=O)O)c4ccccc4C3(C)C)/C[N+](C)(C)C2)=[N+](CCCCCC(=O)O)c2ccccc21` [Example 25] are 767.5 nm and 2.265.
